In patent US20050198896A1, “Novel vegetal reinforcing agent based on phytohormones for use in the cultivation of plants or agriculture, preferably in the cultivation of fruit or in wine growing” (priority 2002, published 2005):

Assays:
grapes = assay: GA3 in grapes compared to treatment with ethephon; assay type: in vivo
Description: (§1) According to a further embodiment of the invention, GA3 and/or GA4/7 is/are used during the blooming period in the cultivation of […] grapes, table grapes or of grapes for special purposes, to enhance quality and as a protective measure against botrytis disease, in an application concentration of 5 to 100, preferably 5 to 50, especially 10 to 20 ppm, based on a quantity of water of 300 to 500, preferably 350 to 450 l/ha.

botrytis disease = assay: infestation of grapes with botrytis disease; assay type: in vivo; conditions: loosening-up of the grapes (lengthening of the stalks)
Description: as §1, with “l/ha. […] By contrast to conventional treatment with fungicides this happens purely mechanically/morphologically since the greater length of the stalks prevents mutual pushing away of the grapes, and damage to the grapes is thereby avoided. Such damage results in the occurrence of nest-shaped focuses of rot.” for “l/ha.”

sugar-beets = assay: sugar transport from the leaves into the beet body; assay type: in vivo; conditions: about 2 to 3 weeks before harvest; same effect in potatoes, red beet and carrots
Description: A further surprising inventive feature of the phytohormonal properties of ABA is the effect of promoting the protein and sugar transport in the plants from the leaves into the root(s). […] The same effect is observed in potatoes, red beet and carrots. The increase in sugar content leads to a substantial quality improvement of the harvested produce.

firs and spruces = assay: stress-susceptibility and needle retention of Christmas trees; assay type: in vivo
vine = assay: quality enhancement in wine growing with ABA; assay type: in vivo; conditions: applied for several weeks prior to harvest
Description: ABA can also be used for quality enhancement in wine growing. […] This leads to a higher density of the wine and thereby to wines with improved storage stability. Analogous effects occur in pears and apples.

apples and pears = assay: leaf abortion in apples and pears; assay type: in vivo
Description: This makes a further treatment with a fungicide unnecessary.

chrysanthemums = assay: frost resistance, damaged flowers after frost; assay type: in vivo; conditions: application about 24 hours prior to the frost
Protocol: Just as astonishing is the effect that exogenous application of ABA leads to frost resistance in crops, e.g. pears and apples, of adornment plants and fruit crops which has been observed. Application about 24 hours prior to the frost reduced the number of damaged flowers in chrysanthemums by 48%.

cherry crops = assay: bursting of cherries after rainfall, exogenous application of ABA before rainfall; assay type: in vivo; conditions: variety Hedelfinger
Description: In cherry crops it is an important problem that if it rains shortly before the harvest the cherries are capable of absorbing large quantities of water in their interior. This frequently causes them to burst so that they can no longer be utilized. Exogenous application of ABA in cherry crops before rainfall reduces the bursting of the variety Hedelfinger, for example, by up to 30%.

trees in fruit crops = assay: renewed burgeoning following rain after a prolonged period of dryness; assay type: in vivo, trees in fruit crops; potatoes; conditions: also observed in potatoes
Description: It has furthermore been observed that trees in fruit crops following rain after a prolonged period of dryness burgeon again. This has a negative influence on the quality of the fruit. […] This effect has also been observed in potatoes.

Question: Which “density of the wine, colour and wine quality” value (grapes) does the source give for `C=C1C[C@]23C[C@@]1(O)CC[C@H]2[C@@]12C=C[C@H](O)[C@@](C)(C(=O)O1)[C@H]2[C@@H]3C(=O)O` [GA3, gibberellin A3] here?
Answer: improved

Question: What about the grape weight (grapes) of the same compound?
Answer: no reduction in grape weight is observed

Question: And the mean grape diameter (grapes)?
Answer: larger

Question: What about the “infestation with botrytis disease” value (botrytis disease) of the same compound?
Answer: reduction in infestation with botrytis disease

Question: What does the source list for `CC(C=C[C@@]1(O)C(C)=CC(=O)CC1(C)C)=CC(=O)O` (stereo in doubt) [ABA, (S)-5-(1-hydroxy-2,6,6-trimethyl-4-oxo-2-cyclohexenyl)-3-methyl-cis/trans-2,4-pentadienoic acid]?
Answer: transport of leaf sugar into the body of the beet (sugar-beets): the sugar present in the leaves is additionally transported into the body of the beet; needle retention (firs and spruces; compared with untreated trees): keep their needles for much longer than untreated trees; stress-susceptibility (firs and spruces; firs and spruces harvested as Christmas trees): reduction of stress-susceptibility; increase in sugar content of the grapes (vine): comparable increase in sugar content; reduction of the size of the grapes (vine): up to 10%; leaf abortion (apples and pears): quick leaf abortion; reduction of the number of damaged flowers (chrysanthemums): 48%; reduction of the bursting of cherries (cherry crops): up to 30%; renewed burgeoning of the plants (trees in fruit crops): prevents renewed burgeoning of the plants
